Assay results from US20250066367A1, “Pyrimidine-Annulated Triazole Derivatives and Their Use in Platelet Aggregation Inhibition” (BEIJING HONGHUI MEDITECH CO., LTD., priority 2021, published 2025).
Like-named read-outs stand apart in the source and are kept apart here.

Molecular target: human P2Y12 receptor (Homo sapiens, UniProt Q9H244)
Test: Inhibition study in human P2Y12 receptor transfected CHO cells (cAMP, LANCE Ultra cAMP Kit)
Assay type: cell-based
Description: A CHO cell line which stably expresses human P2Y12 receptors was used in the study of the inhibitory effect of the compounds of the disclosure. (The cell line was constructed by Beijing Ion Channel Explorer Co.) The hP2Y12-CHO Cells were cultured in Ham's F-12 medium (Ham's F-12 Medium: +10% FBS +200 μg/ml Hygromycin B) and incubated at 37° C. under 5% CO2. The poor culture medium was removed, and the cells were washed with PBS. Then 1 mL trypsin solution was added to digest/detach the cells. The culture dish was incubated at 37° C. for 2 minutes. As soon as the cells were detached, 5 mL 37° C. pre-warmed complete medium was added. Cell suspension was transferred into a sterile pipet, the cells aggregates were dissociated by a gentle homogenization. The cell suspension was transferred into a sterile tube, and centrifuged at 1000 rpm for 5 minutes; In order to maintain the physiological activity of cells, the degree of cell fusion was controlled at about 80%.
After cell counting, the cells were cultured in 384-well plate. The test compounds were serially diluted 5-fold from 10000 nM for 10 concentrations and in 3 replicates. Ticagrelor was used as the reference compound and 2-MeSADP as the inducer. After the incubation for 15 min at 37° C., forskolin buffer was added to all wells to induce the production of cAMP. The plate was centrifuged at 1000 rpm for 1 minute, followed by incubation at 37° C. for 30 min. After lysis, the cAMP expression was quantified using PerkinElmer's LANCE® Ultra cAMP Kit method.

[1] = hP2Y12-CHO cells, 2-MeSADP as inducer, forskolin-induced cAMP, read-out: Inbibition of P2Y12 IC50

Sequence of human P2Y12 receptor (Q9H244 whole entry): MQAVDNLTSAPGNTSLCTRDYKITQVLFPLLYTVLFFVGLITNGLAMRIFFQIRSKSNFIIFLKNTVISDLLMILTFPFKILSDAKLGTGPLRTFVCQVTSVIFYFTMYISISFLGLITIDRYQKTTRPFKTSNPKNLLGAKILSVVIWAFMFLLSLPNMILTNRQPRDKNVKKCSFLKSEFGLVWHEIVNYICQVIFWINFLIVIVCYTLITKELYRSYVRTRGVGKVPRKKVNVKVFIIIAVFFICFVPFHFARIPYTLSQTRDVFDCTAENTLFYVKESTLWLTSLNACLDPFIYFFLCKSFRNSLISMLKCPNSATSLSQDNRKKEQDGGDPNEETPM

An IC50 [1] of 50 to 250 nM was found for `CCCSc1nc(N[C@@H]2C[C@H]2c2ccc(F)c(F)c2)c2nnn([C@@H]3[C@@H](F)[C@H](CO)O[C@H]3CO)c2n1` [Compound 39b, ((2R,3S,4R,5S)-3-(7-(((1R,2S)-2-(3,4-difluorophenyl)cyclopropyl)amino)-5-(propylthio)-3H-[1,2,3]triazolo[4,5-d]pyrimidin-3-yl)-4-fluorotetrahydrofuran-2,5-diyl)dimethanol] in this work.
An IC50 [1] of 50 to 250 nM was found for `CCCSc1nc(N[C@@H]2C[C@H]2c2ccc(F)c(F)c2)c2nnn([C@@H]3[C@H](F)[C@H](CO)O[C@H]3CO)c2n1` [Compound 39a, ((2R,3S,4S,5S)-3-(7-(((1R,2S)-2-(3,4-difluorophenyl)cyclopropyl)amino)-5-(propylthio)-3H-[1,2,3]triazolo[4,5-d]pyrimidin-3-yl)-4-fluorotetrahydrofuran-2,5-diyl)dimethanol] in this work.
An IC50 [1] of 250 to 1250 nM was found for `CCCSc1nc(N[C@@H]2C[C@H]2c2ccc(F)c(F)c2)c2nnn([C@@H]3C[C@H](CO)O[C@H]3COC)c2n1` [Compound 49, ((2R,4R,5R)-4-(7-(((1R,2S)-2-(3,4-difluorophenyl)cyclopropyl)amino)-5-(propylthio)-3H-[1,2,3]triazolo[4,5-d]pyrimidin-3-yl)-5-(methoxymethyl)tetrahydrofuran-2-yl)methanol] in this work.
An IC50 [1] of less than 50 nM was found for `CCCSc1nc(N[C@@H]2C[C@H]2c2ccc(F)c(F)c2)c2nnn([C@@H]3C[C@H](C(=O)O)O[C@H]3CO)c2n1` [Compound 42, (2R,4R,5R)-4-(7-(((1R,2S)-2-(3,4-difluorophenyl)cyclopropyl)amino)-5-(propylthio)-3H-[1,2,3]triazolo[4,5-d]pyrimidin-3-yl)-5-(hydroxymethyl)tetrahydrofuran-2-carboxylic acid] in this work.
An IC50 [1] of less than 50 nM was found for `CCCSc1nc(N[C@@H]2C[C@H]2c2ccc(F)c(F)c2)c2nnn([C@H]3CO[C@@H](CO)[C@@H]3O)c2n1` [Compound 27, (2S,3R,4S)-4-(7-(((1R,2S)-2-(3,4-difluorophenyl)cyclopropyl)amino)-5-(propylthio)-3H-[1,2,3]triazolo[4,5-d]pyrimidin-3-yl)-2-(hydroxymethyl)tetrahydrofuran-3-ol] in this work.
An IC50 [1] of less than 50 nM was found for `CCCSc1nc(N[C@@H]2C[C@H]2c2ccc(F)c(F)c2)c2nnn([C@H]3CO[C@@H](CO)C3)c2n1` [Compound 32, ((2R,4R)-4-(7-(((1R,2S)-2-(3,4-difluorophenyl)cyclopropyl)amino)-5-(propylthio)-3H-[1,2,3]triazolo[4,5-d]pyrimidin-3-yl)tetrahydrofuran-2-yl)methanol] in this work.
An IC50 [1] greater than 1250 nM was found for `CCCSc1nc(N[C@@H]2C[C@H]2c2ccc(F)c(F)c2)c2nnn([C@@H]3C[C@H](CCO)O[C@H]3CO)c2n1` [Compound 54, 2-((2R,4R,5R)-4-(7-(((1R,2S)-2-(3,4-difluorophenyl)cyclopropyl)amino)-5-(propylthio)-3H-[1,2,3]triazolo[4,5-d]pyrimidin-3-yl)-5-(hydroxymethyl)tetrahydrofuran-2-yl)ethan-1-ol] in this work.
An IC50 of less than 50 nM was found for `CCCSc1nc(N[C@@H]2C[C@H]2c2ccc(F)c(F)c2)c2nnn([C@@H]3C[C@H](OCCO)[C@@H](O)[C@H]3O)c2n1` [Ticagrelor, reference compound] in this work.
An IC50 [1] of 250 to 1250 nM was found for `CCC[S+]([O-])c1nc(N[C@@H]2C[C@H]2c2ccc(F)c(F)c2)c2nnn([C@@H]3C[C@H](C(=O)O)O[C@H]3CO)c2n1` (stereo partly drawn) [Compound 43, (2R,4R,5R)-4-(7-(((1R,2S)-2-(3,4-difluorophenyl)cyclopropyl)amino)-5-(propylsulfinyl)-3H-[1,2,3]triazolo[4,5-d]pyrimidin-3-yl)-5-(hydroxymethyl) tetrahydrofuran-2-carboxylic Acid] in this work.
An IC50 [1] of 250 to 1250 nM was found for `CCCSc1nc(N[C@@H]2C[C@H]2c2ccc(F)c(F)c2)c2nnn([C@@H]3[C@@H](O)[C@H](CO)O[C@H]3CO)c2n1` [Compound 8, ((2R,3R,4R,5S)-3-(7-(((1R,2S)-2-(3,4-difluorophenyl)cyclopropyl)amino)-5-(propylthio)-3H-[1,2,3]triazolo[4,5-d]pyrimidin-3-yl)-4-hydroxytetrahydrofuran-2,5-diyl)dimethanol] in this work.
An IC50 [1] of less than 50 nM was found for `CCCSc1nc(N[C@@H]2C[C@H]2c2ccc(F)c(F)c2)c2nnn([C@@H]3C[C@H](CO)O[C@H]3CO)c2n1` [Compound 19, ((2R,3R,5R)-3-(7-(((1R,2S)-2-(3,4-difluorophenyl)cyclopropyl)amino)-5-(propylthio)-3H-[1,2,3]triazolo[4,5-d]pyrimidin-3-yl)tetrahydrofuran-2,5-diyl)dimethanol] in this work.
